Data from patent US20230233576A1, “ECLITASERTIB FOR USE IN TREATING CONDITIONS INVOLVING SYSTEMIC HYPERINFLAMMATORY RESPONSE” (priority 2020, published 2023).

System: adult participants hospitalized for severe COVID-19
Experiment: Phase 1b severe COVID-19 study: adverse events and deaths
Format: in vivo, human
Excerpt: Safety evaluation was based on adverse events (Aes) including serious adverse events (SAEs) and adverse events of special interest (AESIs) (i.e., pregnancy, symptomatic overdose with IMP. Alanine aminotransferase [ALT] increase, and anemia), and treatment-emergent adverse events (TEAEs) leading to treatment discontinuation.
The primary focus of AE reporting was on treatment emergent adverse events (TEAEs). Treatment emergent adverse events were Aes that were not present at baseline or represented the exacerbation of a pre-existing condition during the on-treatment period (treatment-emergent period), defined as the time from the first administration of the IMP up to and including the day of last dose of study drug plus 5 days.
All adverse events were coded to a “preferred term (PT)”, “high-level term (HLT)”, “high-level group term (HLGT)”, and associated primary SOC using Medical Dictionary for Regulatory Activities (MedDRA) version 23.1.
The number and cumulative incidence rate of deaths [%] during the on-study period were computed by treatment group: number of deaths divided by the number of participants. Kaplan-Meier plot for time to death was presented by treatment group.

[1] = 600 mg (N = 47), Safety population
[2] = 600 mg (N = 47), Safety population, corresponds to worsening of COVID-19
[3] = 600 mg, Safety population (N = 47)
[4] = 600 mg, Study day 0, Safety population
[5] = 600 mg, Study day 13, Safety population
[6] = 600 mg, Study day 15, Safety population
[7] = 600 mg, Study day 27, Safety population
[8] = 600 mg, Study day 28, Safety population
[9] = 600 mg, Study day 29, Safety population
[10] = 600 mg, Study day 30, Safety population
[11] = 600 mg, Study day 31, Safety population
[12] = 600 mg, Study day 33, Safety population
[13] = 600 mg, Study day 42, Safety population
[14] = 600 mg, Study day 60, Safety population
[15] = post-treatment period, 600 mg (N = 47), safety population
[16] = pre-treatment emergent adverse events, 600 mg group (N = 47), safety population

## CN1C(=O)[C@@H](NC(=O)c2nnc(Cc3ccccc3)[nH]2)COc2cccnc21 [RIPK1 Inhibitor, (S)-5-benzyl-N-(5-methyl-4-oxo-2,3,4,5-tetrahydropyrido[3,2-b][1,4]oxazepin-3-yl)-4H-1,2,4-triazole-3-carboxamide]
[1]
  TEAE, PT Pulmonary embolism: percentage of participants: (2.1) %
  TEAE, PT Pyrexia: number of participants: 1
  TEAE, PT Pyrexia: percentage of participants: (2.1) %
  TEAE, PT Renal cyst: number of participants: 0
  TEAE, PT Renal impairment: number of participants: 0
  TEAE, PT Respiratory disorder: number of participants: 1
  TEAE, PT Respiratory disorder: percentage of participants: (2.1) %
  TEAE, PT Respiratory failure: number of participants: 0
  TEAE, PT Subcutaneous emphysema: number of participants: 0
  TEAE, PT Tachycardia paroxysmal: number of participants: 0
  TEAE, PT Tracheitis: number of participants: 0
  TEAE, PT Tracheobronchitis: number of participants: 0
  TEAE, PT Transaminases increased: number of participants: 0
  TEAE, PT Venous thrombosis limb: number of participants: 1
  TEAE, PT Venous thrombosis limb: percentage of participants: (2.1) %
  TEAE, PT Vessel puncture site phlebitis: number of participants: 1
  TEAE, PT Vessel puncture site phlebitis: percentage of participants: (2.1) %
  TEAE, PT Vomiting: number of participants: 0
  TEAE, SOC BLOOD AND LYMPHATIC SYSTEM DISORDERS: number of participants: 1
  TEAE, SOC BLOOD AND LYMPHATIC SYSTEM DISORDERS: percentage of participants: (2.1) %
  TEAE, SOC CARDIAC DISORDERS: number of participants: 0
  TEAE, SOC GASTROINTESTINAL DISORDERS: number of participants: 6
  TEAE, SOC GASTROINTESTINAL DISORDERS: percentage of participants: (12.8) %
  TEAE, SOC GENERAL DISORDERS AND ADMINISTRATION SITE CONDITIONS: number of participants: 6
  TEAE, SOC GENERAL DISORDERS AND ADMINISTRATION SITE CONDITIONS: percentage of participants: (12.8) %
  TEAE, SOC HEPATOBILIARY DISORDERS: number of participants: 0
  TEAE, SOC IMMUNE SYSTEM DISORDERS: number of participants: 1
  TEAE, SOC IMMUNE SYSTEM DISORDERS: percentage of participants: (2.1) %
  TEAE, SOC INFECTIONS AND INFESTATIONS: number of participants: 4
  TEAE, SOC INFECTIONS AND INFESTATIONS: percentage of participants: (8.5) %
  TEAE, SOC INJURY, POISONING AND PROCEDURAL COMPLICATIONS: number of participants: 1
  TEAE, SOC INJURY, POISONING AND PROCEDURAL COMPLICATIONS: percentage of participants: (2.1) %
  TEAE, SOC INVESTIGATIONS: number of participants: 6
  TEAE, SOC INVESTIGATIONS: percentage of participants: (12.8) %
  TEAE, SOC METABOLISM AND NUTRITION DISORDERS: number of participants: 3
  TEAE, SOC METABOLISM AND NUTRITION DISORDERS: percentage of participants: (6.4) %
  TEAE, SOC MUSCULOSKELETAL AND CONNECTIVE TISSUE DISORDERS: number of participants: 1
  TEAE, SOC MUSCULOSKELETAL AND CONNECTIVE TISSUE DISORDERS: percentage of participants: (2.1) %
  TEAE, SOC NERVOUS SYSTEM DISORDERS: number of participants: 0
  TEAE, SOC PSYCHIATRIC DISORDERS: number of participants: 1
  TEAE, SOC PSYCHIATRIC DISORDERS: percentage of participants: (2.1) %
  TEAE, SOC RENAL AND URINARY DISORDERS: number of participants: 0
  TEAE, SOC REPRODUCTIVE SYSTEM AND BREAST DISORDERS: number of participants: 0
  TEAE, SOC RESPIRATORY, THORACIC AND M[…]: number of participants: 4
  TEAE, SOC RESPIRATORY, THORACIC AND M[…]: percentage of participants: (8.5) %
  TEAE, SOC SKIN AND SUBCUTANEOUS TISSUE DISORDERS: number of participants: 0
  TEAE, SOC VASCULAR DISORDERS: number of participants: 3
  TEAE, SOC VASCULAR DISORDERS: percentage of participants: (6.4) %
[2]
  TEAE, PT Condition aggravated: number of participants: 4
  TEAE, PT Condition aggravated: percentage of participants: (8.5) %
[3]
  deaths up to Day 28: 4.3%
  number of AESIs: 6 AESIs
  number of TEAEs considered as IMP-related by the Investigator: 2 TEAEs
  number of TEAEs leading to treatment discontinuation: 5 TEAEs
  number of serious TEAEs: 8 serious TEAEs
  participants with AESI, PT Anaemia: 0 n
  participants with AESI, PT Transaminases increased: 0 n
  participants with AESI, SOC BLOOD AND LYMPHATIC SYSTEM DISORDERS: 0 n
  participants with post-treatment AE leading to death: 1 participant
600 mg, Safety population (N = 47), on Day 11 and Day 15
  deaths up to Day 28: 2 participants
[4]
  Cumulative incidence rate of deaths: 0
  Number of deaths: 0
[5]
  Cumulative incidence rate of deaths: 0.02
  Number of deaths: 1
[6]
  Cumulative incidence rate of deaths: 0.04
  Number of deaths: 1
[7]
  Cumulative incidence rate of deaths: 0.04
  Number of deaths: 0
[8]
  Cumulative incidence rate of deaths: 0.04
  Number of deaths: 0
[9]
  Cumulative incidence rate of deaths: 0.04
  Number of deaths: 0
[10]
  Cumulative incidence rate of deaths: 0.04
  Number of deaths: 0
[11]
  Cumulative incidence rate of deaths: 0.04
  Number of deaths: 0
[12]
  Cumulative incidence rate of deaths: 0.04
  Number of deaths: 0
[13]
  Cumulative incidence rate of deaths: 0.04
  Number of deaths: 0
[14]
  Cumulative incidence rate of deaths: 0.04
  Number of deaths: 0
600 mg, abnormal ALT and AST levels
  participants with post-treatment AESI of transaminase increase: One
600 mg, from an abnormal baseline
  participants with PCSAs of elevated glucose levels considered as a TEAE of hyperglycemia: One
Daily doses over 15 days, severe COVID-19, with standard of care
  overall safety and tolerability as compared to placebo: generally safe and well tolerated
[15]
  Participants with any post-treatment AE: 6 (12.8) n (%)
  Participants with any post-treatment AE leading to death: 1 (2.1) n (%)
  Participants with any post-treatment SAE: 1 (2.1) n (%)
  Participants with any post-treatment related to the compound: 0 n (%)
  Participants with severe post-treatment AE: 1 (2.1) n (%)
[16]
  Participants with any pre-treatment AE: 2 (4.3) n (%)
  Participants with any pre-treatment AE leading to death: 0 n (%)
  Participants with any pre-treatment SAE: 1 (2.1) n (%)
  Participants with severe pre-treatment AE: 1 (2.1) n (%)
